# Measurements reported in US20080286771A1, “Method of Predicting the Responsiveness of a Tumour to Erbb Receptor Drugs” (priority 2004, published 2008).
# Where two headings read alike, the source gives them in different places.
# Legend:
# [1] = test system: MCF7 breast tumour cell line xenograft; assay: MCF7 xenograft response to gefitinib; type: in vivo, nude mice
# Description: (§1) This definition is based on the response observed when the tumour cell line is implanted into nude mice and grown as a xenograft. This definition has been used for all the pre-clinical studies described herein. […] BT474 (ATCC No. HTB-20)-breast tumour cell line • b. DU145 (ATCC No. HTB-81)-[…] tumour cell line • c. MCF7 (ATCC No. HTB-22, sourced from ICRP (now CR-UK), London), -breast tumour cell line • d. GEO colon tumour cell line.
# [2] = test system: PC3 prostate tumour cell line xenograft; assay: PC3 xenograft response to gefitinib; type: in vivo; conditions: PC3 xenograft in nude mice
# Description: (§2) This definition is based on the response observed when the tumour cell line is implanted into nude mice and grown as a xenograft. This definition has been used for all the pre-clinical studies described herein. Initially a small panel of six human tumour cell lines were assembled, three which are sensitive to gefitinib and three which are resistant to gefitinib in the xenograft setting defined above. The sensitive cell lines were; • 1.
# KB cell line xenograft = assay: KB xenograft response to gefitinib; type: in vivo; conditions: KB xenograft in nude mice
# Description: as §2
# [3] = test system: MKN45 gastric tumour cell line xenograft; assay: MKN45 xenograft response to gefitinib; type: in vivo; conditions: MKN45 xenograft in athymic mice, oral dosing once daily, mean tumour volume
# Description: as §2
# [4] = test system: DU145 tumour cell line xenograft; assay: DU145 xenograft response to gefitinib; type: in vivo, nude mice
# Description: as §1
# [5] = test system: SW620 colon tumour cell line xenograft; assay: SW620 xenograft response to gefitinib; type: in vivo, nude mice
# Description: (§3) This definition is based on the response observed when the tumour cell line is implanted into nude mice and grown as a xenograft. This definition has been used for all the pre-clinical studies described herein.
# [6] = test system: A549 lung tumour cell line xenograft; assay: A549 xenograft response to gefitinib; type: in vivo; conditions: A549 xenograft in athymic mice, oral dosing once daily, mean tumour volume
# Description: as §1
# [7] = test system: MiaPac2 pancreatic tumour cell line xenograft; assay: MiaPac2 xenograft response to gefitinib; type: in vivo, nude mice
# Description: as §3
# advanced NSCLC [8] = conditions: cited from earlier work; for Objective response rate (Complete Response+Partial Response): advanced NSCLC previously treated with chemotherapy
# [9] = test system: Lovo colon tumour cell line xenograft; assay: Lovo xenograft response to gefitinib; type: in vivo; conditions: Lovo xenograft in nude mice
# Description: as §2
# [10] = test system: GEO colon tumour cell line xenograft; assay: GEO xenograft response to gefitinib; type: in vivo, nude mice
# Description: as §1
# [11] = test system: HT29 colon tumour cell line xenograft; assay: HT29 xenograft response to gefitinib; type: in vivo; conditions: HT29 xenograft in nude mice
# Description: as §2
# [12] = test system: MDAMB231 breast tumour cell line xenograft; assay: MDAMB231 xenograft response to gefitinib; type: in vivo, nude mice
# Description: as §3
# [13] = test system: RT112 bladder tumour cell line xenograft; assay: RT112 xenograft response to gefitinib; type: in vivo, nude mice
# Description: as §3
# [14] = test system: BT474 breast tumour cell line xenograft; assay: BT474 xenograft response to gefitinib; type: in vivo, nude mice
# Description: as §1
# [15] = test system: A431 epidermoid cell line xenograft; assay: A431 xenograft response to gefitinib; type: in vivo, nude mice
# Description: as §1
# [16] = test system: Calu 6 lung tumour cell line xenograft; assay: Calu 6 xenograft response to gefitinib; type: in vivo; conditions: Calu 6 xenograft in nude mice
# Description: as §2
# [17] = test system: HX147 lung tumour cell line xenograft; assay: HX147 xenograft response to gefitinib; type: in vivo, nude mice
# Description: as §3
# advanced NSCLC [18] = conditions: advanced NSCLC previously treated with chemotherapy, cited from earlier work
smiles,measurement,setting,value
"COc1cc2ncnc(Nc3ccc(F)c(Cl)c3)c2cc1OCCCN1CCOCC1 [gefitinib, N-(3-chloro-4-fluorophenyl)-7-methoxy-6-(3-morpholinopropoxy)quinazolin-4-amine]",response when grown as a xenograft (sensitive/resistant),[1],sensitive
same,response when grown as a xenograft (sensitive/resistant),[2],resistant
same,response when grown as a xenograft (sensitive/resistant),KB cell line xenograft,sensitive
same,response when grown as a xenograft (sensitive/resistant),[3],resistant
same,response when grown as a xenograft (sensitive/resistant),[4],sensitive
same,response when grown as a xenograft (sensitive/resistant),[5],resistant
same,response when grown as a xenograft (sensitive/resistant),[6],sensitive
same,response when grown as a xenograft (sensitive/resistant),[7],resistant
same,Objective response rate (Complete Response+Partial Response),"advanced NSCLC [8]; IDEAL 1 trial, predominantly Japanese",18.4%
same,Objective response rate (Complete Response+Partial Response),"advanced NSCLC [8]; IDEAL 2 trial, predominantly European-derived population",11.8%
same,"patients overall benefit (objective response, stable disease and/or symptom improvement)",advanced NSCLC [8]; IDEAL trials,approximately 50%
same,toxicity,"advanced NSCLC [8]; single agent, advanced NSCLC patients",limited toxicity
same,response when grown as a xenograft (sensitive/resistant),[9],sensitive
same,response when grown as a xenograft (sensitive/resistant),[10],sensitive
same,response when grown as a xenograft (sensitive/resistant),[11],sensitive
same,response when grown as a xenograft (sensitive/resistant),[12],resistant
same,response when grown as a xenograft (sensitive/resistant),[13],resistant
same,response when grown as a xenograft (sensitive/resistant),[14],sensitive
same,response when grown as a xenograft (sensitive/resistant),[15],sensitive
same,response when grown as a xenograft (sensitive/resistant),[16],resistant
same,response when grown as a xenograft (sensitive/resistant),[17],resistant
C#Cc1cccc(Nc2ncnc3cc(OCCOC)c(OCCOC)cc23)c1 [erlotinib],prolongs survival,advanced NSCLC [18]; across the population,~2 months
same,reduction in risk of death at one year,advanced NSCLC [18],41%
